# Measurements reported in patent US20060240474A1, “Peptides able to switch between two structural states and their use” (UNIVERSITY OF SUSSEX, priority 2002, published 2006).
# Where a SMILES comes first, the peptide text is derived from it. Bridges are numbered along the chain shown (N, C = ends). Where no end group is shown, it is not given here. The star is where a group is joined. Cam = NC(=O)C*
# Columns and labels:
# [1] = Circular dichroism spectroscopy (helicity); format: physicochemical; settings: pH 7; comparator named in the value
# Protocol: (§1) Circular dichroism spectroscopy. CD measurements were made using a JASCO J-715 spectropolarimeter fitted with a Peltier temperature controller. Peptide solutions were prepared in 25 mM potassium phosphate buffer at pH 7 and were examined in 1 mm or 1 cm quartz cuvettes (with stirring). Spectra were recorded at 5° C. using 1 nm intervals, a 1 nm bandwidth and 4 sec response time. Thermal unfolding curves were recorded through 1° C. min^−1 ramps using a 2 nm bandwidth, averaging the signal for 16 s every 1° C. intervals. After baseline correction, ellipticities in mdeg were converted to molar ellipticities (deg cm^2 dmol-res-^−1) by normalising for the concentration of peptide bonds.
# [2] = Conformational switching of oxidised CSP-3 to the reduced form, CD time scan at 222 nm; format: physicochemical; settings: 20-fold excess (2 mM)
# Protocol: The molar ellipticity at 222 nm was recorded. To induce the switch of the peptide from its oxidised to its reduced form a reducing agent for the disulphide bond was added. Two reducing agents were used for comparison, DTE and β-mercaptoethanol, in 20-fold excess (2 mM). […] The time taken to initiate the scan after addition of reducing agent was noted. […] A wavelength scan (190-260 nm) was run for each sample once the switch experiment was complete to record the spectrum of the reduced peptide. The data obtained from the time course reaction was analysed using the data analysis program Origin (v. 11) (see FIG. 5) A single exponential curve for a first order reaction has been fitted to the data from a switch experiment, using the data analysis program Origin. The equation for the curve is: y=Ae^−kt+B where A=amplitude of signal • B=[…] • k=rate constant • t=time […]
# [3] = Thermal unfolding followed by CD spectroscopy; format: physicochemical; settings: comparator named in the value
# Protocol: as §1
# [4] = Sedimentation equilibrium analytical ultracentrifugation (monomer-dimer equilibrium); format: physicochemical; settings: monomer-dimer fit, 5° C., pH 7; read-out: KD (95% confidence limits)
# Protocol: Sedimentation equilibrium experiments were conducted at 5° C. in a Beckman-Optima XL-I analytical ultracentrifuge fitted with an An-60 Ti rotor. A […] peptide solution at […] in 25 mM K phosphate buffer pH 7 containing 0.1 M KCl was equilibrated for 48 h at speeds of 40 000, 47 500/50 000 and 55 000/60 000 rpm. […] The molecular weights (Table 2) and partial specific volumes (range 0.7417 to 0.7461) of the peptides were calculated from their amino-acid sequences, and the viscosity of the buffer at 5° C. was taken to be […].
# [5] = biological target: the molecule itself; assay: sedimentation equilibrium AUC, poor monomer-dimer fit, 5 C (homodimerisation)
# Protocol: (§2) Sedimentation equilibrium experiments were conducted at 5° C. in a Beckman-Optima XL-I analytical ultracentrifuge fitted with an An-60 Ti rotor. A […] peptide solution at […] in 25 mM K phosphate buffer pH 7 containing 0.1 M KCl was equilibrated for 48 h at speeds of 40 000, 47 500/50 000 and 55 000/60 000 rpm. Data were fitted simultaneously assuming either a single ideal species or a monomer-dimer equilibrium and fixed monomer molecular weight, using routines in the Beckman-Optima XL-A/XLI-I data analysis software (v4.0). The molecular weights (Table 2) and partial specific volumes (range 0.7417 to 0.7461) of the peptides were calculated from their amino-acid sequences, and the viscosity of the buffer at 5° C. was taken to be […].
# However, the reduced form of the peptide, CSP-2r, was only partially folded as judged from CD spectra (consistent with only ˜20% helix) (see FIG. 3A). […] (see FIG. 3B). […] The data fitted best assuming a single ideal species, and returned a molecular weight close to that expected for monomer (see Table 2). Fits to monomer-dimer were poor and gave weak dissociation constants in the 10-100 mM range.
# [6] = biological target: the molecule itself; assay: sedimentation equilibrium (AUC), self-association
# Protocol: as §2
molecule,measurement,setting,value
CC[C@H](C)[C@@H]1NC(=O)[C@H](CCCCN)NC(=O)[C@H](CCC(N)=O)NC(=O)[C@H](CCC(=O)O)NC(=O)[C@H](CC(C)C)NC(=O)[C@H](C)NC(=O)[C@H](CCCNC(=N)N)NC(=O)[C@H]([C@@H](C)CC)NC(=O)[C@H](CCCCN)NC(=O)[C@H](C)NC(=O)[C@H](CCC(N)=O)NC(=O)[C@H](CCCCN)NC(=O)[C@H](C)NC(=O)[C@H](CCC(N)=O)NC(=O)[C@H](CCCCN)NC(=O)[C@H](CC(C)C)NC(=O)[C@H](CCCNC(=N)N)NC(=O)[C@H](C)NC(=O)[C@H]([C@@H](C)CC)NC(=O)[C@H](CCC(=O)O)NC(=O)[C@H](Cc2ccc(O)cc2)NC(=O)[C@H](CCCCN)NC(=O)[C@H](CC(C)C)NC(=O)[C@H](C)NC(=O)[C@H](CCCNC(=N)N)NC(=O)[C@H]([C@@H](C)CC)NC(=O)[C@H](CCC(=O)O)NC(=O)CNC(=O)CNC(=O)[C@@H](N)CSSC[C@@H](C(=O)O)NC(=O)CNC(=O)CNC(=O)[C@H](CCC(=O)O)NC(=O)[C@H](CC(C)C)NC(=O)[C@H](C)NC(=O)[C@H](C)NC1=O [CSP-3o] (H-CGGEIRALKYEIARLKQAKQAKIRALEQKIAALEGGC-OH; disulfide 1-37; N-terminus and C-terminus assumed),helicity compared with other designs (CD signal at 222 nm),[1],marginally improved helicity and thermal stability over CSP-2o
same,time taken for reduction to complete,[2]; with DTE,75 min
same,time taken for reduction to complete,[2]; with βME,180 min
same,thermal stability in words,[3],marginally improved helicity and thermal stability over CSP-2o
CGGEIRALKYEIARLKQ----KKRALEQKIAALEGGC [CSP-1r],Kd,[4],0.033 mM
"C(Cam)GGEIRALKYEIARLKQGGGGKKRALEQKIAALEGGC(Cam) (CSP-1 with a tetraglycine insert; also called design iteration 2, reduced & alkylated; CSP-4a (Maya's nomenclature)) [CSP-2r (reduced and alkylated)]",Kd,[5],10 to 100 mM
"CGGEIRALKYEIARLKQGGGGKKRALEQKIAALEGGC (disulfide 1-37, also called design iteration 2, oxidised; CSP-4o (Maya's nomenclature)) [CSP-2o (intra-molecularly oxidised)]",binding result,[6],no binding
